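Cells were grown in 96-well plates and exposed to each compound for 48 hours at five concentrations; endpoints were interpolated linearly between bracketing concentrations, or set to the highest concentration if not reached. GI50 is the concentration that inhibits growth by half. TGI marks complete inhibition of growth.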
Columns and labels:
Test in all cases: inhibition of tumour cell growth, NCI panel, 48 h
HL-60(TB) leukemia = system: HL-60(TB) leukemia
CAKI-1 renal = system: CAKI-1 renal
SF-268 CNS = system: SF-268 CNS
MALME-3M melanoma = system: MALME-3M melanoma
BT-549 breast = system: BT-549 breast
SK-MEL-2 melanoma = system: SK-MEL-2 melanoma
SN12C renal = system: SN12C renal
SK-MEL-5 melanoma = system: SK-MEL-5 melanoma
NCI-H522 lung = system: NCI-H522 lung
UO-31 renal = system: UO-31 renal
DU-145 prostate = system: DU-145 prostate
HOP-92 NSCLC = system: HOP-92 NSCLC
MOLT-4 leukemia = system: MOLT-4 leukemia
SNB-19 CNS = system: SNB-19 CNS
HCC-2998 colon = system: HCC-2998 colon
MDA-MB-231 breast = system: MDA-MB-231 breast
U251 CNS = system: U251 CNS
HS 578T breast = system: HS 578T breast
CCRF-CEM leukemia = system: CCRF-CEM leukemia
SR leukemia = system: SR leukemia
OVCAR-8 ovarian = system: OVCAR-8 ovarian
COLO 205 colon = system: COLO 205 colon
SF-539 CNS = system: SF-539 CNS
ACHN renal = system: ACHN renal
SNB-75 CNS = system: SNB-75 CNS
NCI-H226 lung = system: NCI-H226 lung
786-0 renal = system: 786-0 renal
UACC-257 melanoma = system: UACC-257 melanoma
TK-10 renal = system: TK-10 renal
MDA-MB-435 = system: MDA-MB-435
HCT-15 colon = system: HCT-15 colon
HCT-116 colon = system: HCT-116 colon
SK-MEL-28 melanoma = system: SK-MEL-28 melanoma
SK-OV-3 ovarian = system: SK-OV-3 ovarian
A498 renal = system: A498 renal
LOX IMVI melanoma = system: LOX IMVI melanoma
OVCAR-3 ovarian = system: OVCAR-3 ovarian
RPMI-8226 leukemia = system: RPMI-8226 leukemia
HOP-62 NSCLC = system: HOP-62 NSCLC
PC-3 prostate = system: PC-3 prostate
RXF 393 renal = system: RXF 393 renal
A549 NSCLC = system: A549 NSCLC
SW-620 colon = system: SW-620 colon
SF-295 CNS = system: SF-295 CNS
MCF7 breast = system: MCF7 breast
IGROV1 ovarian = system: IGROV1 ovarian
NCI/ADR-RES ovarian = system: NCI/ADR-RES ovarian
K-562 leukemia = system: K-562 leukemia
HT29 colon = system: HT29 colon
NCI-H460 lung = system: NCI-H460 lung
NCI-H23 lung = system: NCI-H23 lung
M14 melanoma = system: M14 melanoma
T-47D breast = system: T-47D breast
OVCAR-5 ovarian = system: OVCAR-5 ovarian
UACC-62 melanoma = system: UACC-62 melanoma
OVCAR-4 ovarian = system: OVCAR-4 ovarian

## CCN(Cc1ccc(F)cc1)c1cc(Cl)c(CO)c(Cl)c1
HL-60(TB) leukemia
  GI50: 13 µM
  TGI: 32.6 µM
CAKI-1 renal
  GI50: 13.5 µM
  TGI: 32.1 µM
SF-268 CNS
  GI50: 13.6 µM
  TGI: 27.7 µM
MALME-3M melanoma
  GI50: 17.8 µM
  TGI: 36.1 µM
BT-549 breast
  GI50: 13.6 µM
  TGI: 28.3 µM
SK-MEL-2 melanoma
  GI50: 15 µM
  TGI: 29.5 µM
SN12C renal
  GI50: 13.3 µM
  TGI: 26.8 µM
SK-MEL-5 melanoma
  GI50: 13.5 µM
  TGI: 26.5 µM
NCI-H522 lung
  GI50: 10.8 µM
  TGI: 25.7 µM
UO-31 renal
  GI50: 12.2 µM
  TGI: 25.4 µM
DU-145 prostate
  GI50: 16.8 µM
  TGI: 31.6 µM
HOP-92 NSCLC
  GI50: 3.61 µM
  TGI: 18.1 µM
MOLT-4 leukemia
  GI50: 16.6 µM
  TGI: 44 µM
SNB-19 CNS
  GI50: 12.5 µM
  TGI: 26 µM
HCC-2998 colon
  GI50: 13.9 µM
  TGI: 28.1 µM
MDA-MB-231 breast
  GI50: 13 µM
  TGI: 26.7 µM
U251 CNS
  GI50: 10.5 µM
  TGI: 22.6 µM
HS 578T breast
  GI50: 12.2 µM
  TGI: 33.4 µM
CCRF-CEM leukemia
  GI50: 16.8 µM
  TGI: 47.7 µM
SR leukemia
  GI50: 15.4 µM
  TGI: 39.6 µM
OVCAR-8 ovarian
  GI50: 14.3 µM
  TGI: 31.3 µM
COLO 205 colon
  GI50: 17.3 µM
  TGI: 31.4 µM
SF-539 CNS
  GI50: 16.2 µM
  TGI: 30.4 µM
ACHN renal
  GI50: 14.9 µM
  TGI: 29.2 µM
SNB-75 CNS
  GI50: 12.8 µM
  TGI: 25.9 µM
NCI-H226 lung
  GI50: 3.69 µM
  TGI: 17.1 µM
786-0 renal
  GI50: 16 µM
  TGI: 32.5 µM
UACC-257 melanoma
  GI50: 6.56 µM
  TGI: 20.4 µM
TK-10 renal
  GI50: 2.58 µM
  TGI: 13.8 µM
MDA-MB-435
  GI50: 17.9 µM
  TGI: 37 µM
HCT-15 colon
  GI50: 15.7 µM
  TGI: 36.6 µM
HCT-116 colon
  GI50: 5.15 µM
  TGI: 18.7 µM
SK-MEL-28 melanoma
  GI50: 17.3 µM
  TGI: 31.5 µM
SK-OV-3 ovarian
  GI50: 15.2 µM
  TGI: 28.7 µM
A498 renal
  GI50: 1.37 µM
  TGI: 6.39 µM
LOX IMVI melanoma
  GI50: 14.7 µM
  TGI: 29.3 µM
OVCAR-3 ovarian
  GI50: 11.7 µM
  TGI: 24.3 µM
RPMI-8226 leukemia
  GI50: 10.7 µM
  TGI: 42.9 µM
HOP-62 NSCLC
  GI50: 14 µM
  TGI: 27.2 µM
PC-3 prostate
  GI50: 11.3 µM
  TGI: 24.7 µM
RXF 393 renal
  GI50: 8.71 µM
  TGI: 21.6 µM
A549 NSCLC
  GI50: 12.3 µM
  TGI: 29.1 µM
SW-620 colon
  GI50: 13.7 µM
  TGI: 30.4 µM
SF-295 CNS
  GI50: 10.9 µM
  TGI: 25.6 µM
MCF7 breast
  GI50: 13.7 µM
  TGI: 28 µM
IGROV1 ovarian
  GI50: 4.08 µM
  TGI: 17.9 µM
NCI/ADR-RES ovarian
  GI50: 13.7 µM
  TGI: 31.4 µM
K-562 leukemia
  GI50: 15.9 µM
  TGI: 51.6 µM
HT29 colon
  GI50: 16.2 µM
  TGI: 33.2 µM
NCI-H460 lung
  GI50: 11.8 µM
  TGI: 25.9 µM
NCI-H23 lung
  GI50: 13 µM
  TGI: 28.8 µM
M14 melanoma
  GI50: 17 µM
  TGI: 35 µM
T-47D breast
  GI50: 7.47 µM
  TGI: 26.5 µM
OVCAR-5 ovarian
  GI50: 4.22 µM
  TGI: 17.7 µM
UACC-62 melanoma
  GI50: 4.98 µM
  TGI: 17.9 µM
OVCAR-4 ovarian
  GI50: 10.7 µM
  TGI: 22.5 µM

From PubChem BioAssay (NCI)
